Results reported in US20260241049A1, “Radiopharmaceutical Compositions Targeting Glypican-3 and Uses Thereof” (RayzeBio, Inc., priority 2023, published 2026).
Starred links: 1 amine or outer side, 2 acyl side, 3 side chain; linkers in the order of their positions; H or OH if unused. Positions of bridges follow the written chain, without caps; N, C: chain ends. Non-standard residues stand in square brackets, D forms with d. Residues, ends and D or L forms follow the SMILES beside them. Groups on a side chain read outwards from the residue. *: point of attachment. Phe(4-(1-Me-pyrazol-4-yl)) = Cn1cc(-c2ccc(C[C@H](N)C(=O)O)cc2)cn1; NMeAla(isoquinolin-7-yl) = CN[C@@H](Cc1ccc2ccncc2c1)C(=O)O; DOTA = O=C(O)CN1CCN(CC(=O)O)CCN(CC(=O)*)CCN(CC(=O)O)CC1; CH2CON(CH2CH2)2NCH2COOH = O=C(O)CN1CCN(C(=O)C*)CC1; Phe(4-CH2COOH) = N[C@@H](Cc1ccc(CC(=O)O)cc1)C(=O)O; 3Pal(6-Ph) = N[C@@H](Cc1ccc(-c2ccccc2)nc1)C(=O)O; Phe(4-COOH) = N[C@@H](Cc1ccc(C(=O)O)cc1)C(=O)O; Phe(4-CH2NH2) = NCc1ccc(C[C@H](N)C(=O)O)cc1; Piperazinyl(4-CH2COOH) = O=C(O)CN1CCN(*)CC1; NMe2Nal = CN[C@@H](Cc1ccc2ccccc2c1)C(=O)O; AEF = NCCOc1ccc(C[C@H](N)C(=O)O)cc1; NMeI = CC[C@H](C)[C@H](NC)C(=O)O; NMeQ = CN[C@@H](CCC(N)=O)C(=O)O; NMehCys = CN[C@@H](CCS)C(=O)O; NMehSer = CN[C@@H](CCO)C(=O)O; NMeK = CN[C@@H](CCCCN)C(=O)O; NMeC = CN[C@@H](CS)C(=O)O; Carboxymethyl = O=C(O)C*; NMeA = CN[C@@H](C)C(=O)O; CO = O=C([*:1])[*:2]

Biological target: T1, human Glypican3 (Homo sapiens, UniProt P51654)
T1 construct: purchased R&D systems 2119-GP
Experiment: SPR binding to Glypican-3, Method B-1 (Glypican3 immobilized on CM3 chip, Biacore T200)
Conditions: SPR method B-1
Protocol: A CM3 sensor chip (Cytiva) was inserted into a Biacore T200 (Cytiva), primed three times with a running buffer: HBS-P+, pH 7.4 (Cytiva), and equilibrated at a flow rate of 30 μL/min. Ligand immobilization was performed at a flow rate of 10 μL/min. 50 μL each of 60 mM EDC solution (Cytiva) and 650 mM NHS solution (Cytiva) were mixed, and then reacted at a flow rate of 10 μL/min for 420 seconds, 150 μL of 0.2 μM human Glypican3 (R&D systems, catalog number: 2119-GP) solution which was prepared by diluting with 10 mM acetic acid solution (pH 5.0), was reacted at a flow rate of 10 μL/min for 420 seconds, and Glypican3 was immobilized on the CM3 sensor chip. After immobilization, 1.0 M ethanolamine aqueous solution (Cytiva) was allowed to react for 420 seconds at a flow rate of 10 μL/min for capping. A peptide lysate prepared to 10 mM in DMSO solution was diluted with running buffer to a final concentration of 10 μM peptide lysate. After that, 5 serial dilution series (100 nM, 50 nM, 25 nM, 10 nM, 5 nM) of peptide solutions were prepared. Using the above samples, peptide kinetics for Glypican3 was obtained by SPR measurement. Kinetics evaluation of Glypican3 was performed by SPR measurements at a flow rate of 10 μL/min, setting the association time to 120 seconds and the disassociation time to 600 seconds.
(§1) The obtained data by Method B-1, Method B-2, Method B-3 and Method B-4 were analyzed by follow. Single Cycle Kinetics was used as the kinetics evaluation model, and curve fitting was performed using Biacore T200 Evaluation Software Version 3.0 (Cytiva). The obtained sensorgram was subjected to curve fitting by the method of least squares and obtained KD values of the macrocyclic peptides in this disclosure for Glypican 3 protein are shown in Table 18.

| Kd | Compound |
| --- | --- |
| 1.8 nM | CC[C@H](C)[C@@H]1NC(=O)[C@H]([C@@H](C)OC)NC(=O)[C@H](Cc2ccc(C(=O)O)cc2)NC(=O)[C@H](CCC(N)=O)N(C)C(=O)[C@H](CC(=O)O)NC(=O)[C@H](CCC(N)=O)N(C)C(=O)[C@H](CCC(N)=O)N(C)C(=O)SCC[C@@H](C(N)=O)N(C)C(=O)[C@H](Cc2ccc(-c3cnn(C)c3)cc2)NC(=O)CNC(=O)[C@H](Cc2ccc3ccccc3c2)N(C)C(=O)[C@H](Cc2ccc(C(=O)O)cc2)NC1=O [Conjugate 2-15] ([NMeQ][NMeQ]D[NMeQ][Phe(4-COOH)]T(Me)I[Phe(4-COOH)][NMe2Nal]G[Phe(4-(1-Me-pyrazol-4-yl))][NMehCys]-NH2; linker N-12 via CO) |

Biological target: Human Glypican3-Fc (Homo sapiens, UniProt P51654)
Experiment: SPR binding to Glypican-3, Method B-2 (Glypican3-Fc captured by anti-human IgG (Fc) antibody on CM3 chip)
Conditions: SPR method B-2
Protocol: A CM3 sensor chip (Cytiva) was inserted into a Biacore T200 (Cytiva), primed three times with a running buffer: HBS-P-+, pH 7.4 (Cytiva), and equilibrated at a flow rate of 30 μL/min. Using the Anti-Fc Capture Kit (Cytiva), 50 LL each of 60 mM EDC solution (Cytiva) and 650 mM NHS solution (Cytiva) were mixed, and then reacted at a flow rate of 10 μL/min for 420 seconds, 150 μL of […] Anti-human IgG (Fc) Antibody solution was prepared by diluting with 10 mM acetic acid solution (pH 5.0), reacted at a flow rate of 10 μL/min for 420 seconds, and immobilized on a CM3 sensor chip. After immobilization, 1.0 M ethanolamine aqueous solution (Cytiva) was allowed to react for 420 seconds at a flow rate of 10 μL/min for capping. Human Glypican3-Fc (ACRO Biosystems, GP3-H5258) was allowed to react for 60 seconds at a flow rate of 10 μL/min. After capturing human Glypican3-Fc, a peptide solution prepared to 10 mM in DMSO solution was diluted with a running buffer to a final concentration of 10 μM. After that, 5 serial dilution series (100 nM, 50 nM, 25 nM, 10 nM, 5 nM) of peptide solutions were prepared. Using the above samples, peptide kinetics for Glypican3 was obtained by SPR measurement. Kinetics evaluation of Glypican3 was performed by SPR measurements at a flow rate of 10 μL/min. setting the association time to 120 seconds and the disassociation time to 600 seconds.
as §1

| Compound | Kd |
| --- | --- |
| CC[C@H](C)[C@@H]1NC(=O)[C@H](Cc2ccc(C(=O)O)cc2)NC(=O)[C@H](CCC(N)=O)N(C)C(=O)[C@H](CC(=O)O)NC(=O)[C@H](CCOC)N(C)C(=O)[C@H](CCCCNC(=O)CN2CCN(CC(=O)O)CCN(CC(=O)O)CCN(CC(=O)O)CC2)N(C)C(=O)CSC[C@@H](C(N)=O)N(C)C(=O)[C@H](Cc2ccc(-c3ccccc3)nc2)NC(=O)CNC(=O)[C@H](Cc2ccc3ccccc3c2)N(C)C(=O)[C@H](Cc2ccc(CC(=O)O)cc2)NC(=O)[C@H]([C@@H](C)CC)NC1=O [Lu-C-21] ({CH2CO}-[NMeK](DOTA)[NMehSer](Me)D[NMeQ][Phe(4-COOH)]II[Phe(4-CH2COOH)][NMe2Nal]G[3Pal(6-Ph)][NMeC]-NH2; thioether N-12) | 1.04 nM |
| CC[C@H](C)[C@@H]1NC(=O)[C@H]([C@@H](C)OC)NC(=O)[C@H](Cc2ccc(C(=O)O)cc2)NC(=O)[C@H](CCC(N)=O)N(C)C(=O)[C@H](CC(=O)O)NC(=O)[C@H](CCOC)N(C)C(=O)[C@H](C)N(C)C(=O)CSC[C@@H](C(N)=O)N(C)C(=O)[C@H](Cc2ccc(-c3ccccc3)nc2)NC(=O)CNC(=O)[C@H](Cc2ccc3ccccc3c2)N(C)C(=O)[C@H](Cc2ccc(OCCNC(=O)CN3CCN(CC(=O)O)CCN(CC(=O)O)CCN(CC(=O)O)CC3)cc2)NC1=O [Lu-C-44] ({CH2CO}-[NMeA][NMehSer](Me)D[NMeQ][Phe(4-COOH)]T(Me)I[AEF](DOTA)[NMe2Nal]G[3Pal(6-Ph)][NMeC]-NH2; thioether N-12) | 1 nM |
| CC[C@H](C)[C@@H]1NC(=O)[C@H](Cc2ccc(C(=O)O)cc2)NC(=O)[C@H](CCC(N)=O)N(C)C(=O)[C@H](CC(=O)O)NC(=O)[C@H]([C@@H](C)CC)N(C)C(=O)[C@H](CCCCNC(=O)[C@H](Cc2c[nH]cn2)NC(=O)CN2CCN(CC(=O)O)CCN(CC(=O)O)CCN(CC(=O)O)CC2)N(C)C(=O)CSC[C@@H](C(N)=O)N(C)C(=O)[C@H](Cc2ccc(-c3ccccc3)nc2)NC(=O)CNC(=O)[C@H](Cc2ccc3ccncc3c2)N(C)C(=O)[C@H](Cc2ccc(OCC(=O)O)cc2)NC(=O)[C@H]([C@@H](C)CC)NC1=O [Lu-C-34] ({CH2CO}-[NMeK]([His-DOTA])[NMeI]D[NMeQ][Phe(4-COOH)]IIY(Carboxymethyl)[NMeAla(isoquinolin-7-yl)]G[3Pal(6-Ph)][NMeC]-NH2; thioether N-12) | 0.8 nM |
| CC[C@H](C)[C@@H]1NC(=O)[C@H](Cc2ccc(C(=O)O)cc2)NC(=O)[C@H](CCC(N)=O)N(C)C(=O)[C@H](CC(=O)O)NC(=O)[C@H]([C@@H](C)CC)N(C)C(=O)[C@H](CCCCNC(=O)[C@@H](Cc2ccccc2)NC(=O)CN2CCN(CC(=O)O)CCN(CC(=O)O)CCN(CC(=O)O)CC2)N(C)C(=O)CSC[C@@H](C(N)=O)N(C)C(=O)[C@H](Cc2ccc(-c3ccccc3)nc2)NC(=O)CNC(=O)[C@H](Cc2ccc3ccncc3c2)N(C)C(=O)[C@H](Cc2ccc(OCC(=O)O)cc2)NC(=O)[C@H]([C@@H](C)CC)NC1=O [Lu-C-41] ({CH2CO}-[NMeK]([dF-DOTA])[NMeI]D[NMeQ][Phe(4-COOH)]IIY(Carboxymethyl)[NMeAla(isoquinolin-7-yl)]G[3Pal(6-Ph)][NMeC]-NH2; thioether N-12) | 0.8 nM |
| CC[C@H](C)[C@@H]1NC(=O)[C@H]([C@@H](C)OC)NC(=O)[C@H](Cc2ccc(C(=O)O)cc2)NC(=O)[C@H](CCC(N)=O)N(C)C(=O)[C@H](CC(=O)O)NC(=O)[C@H]([C@@H](C)CC)N(C)C(=O)[C@H](CCCCNC(=O)CN2CCN(CC(=O)O)CCN(CC(=O)O)CCN(CC(=O)O)CC2)N(C)C(=O)CSC[C@@H](C(N)=O)N(C)C(=O)[C@H](Cc2ccc(-c3ccccc3)nc2)NC(=O)CNC(=O)[C@H](Cc2ccc3ccncc3c2)N(C)C(=O)[C@H](Cc2ccc(OCC(=O)O)cc2)NC1=O [Lu-C-30] ({CH2CO}-[NMeK](DOTA)[NMeI]D[NMeQ][Phe(4-COOH)]T(Me)IY(Carboxymethyl)[NMeAla(isoquinolin-7-yl)]G[3Pal(6-Ph)][NMeC]-NH2; thioether N-12) | 0.7 nM |
| CC[C@H](C)[C@@H]1NC(=O)[C@H](Cc2ccc(C(=O)O)cc2)NC(=O)[C@H](CCC(N)=O)N(C)C(=O)[C@H](CC(=O)O)NC(=O)[C@H](CCC(N)=O)N(C)C(=O)[C@H](CCC(N)=O)N(C)C(=O)CSC[C@@H](C(N)=O)N(C)C(=O)[C@H](Cc2ccc(-c3cnn(C)c3)cc2)NC(=O)CNC(=O)[C@H](Cc2ccc3ccccc3c2)N(C)C(=O)[C@H](Cc2ccc(OCCNC(=O)CN3CCN(CC(=O)O)CCN(CC(=O)O)CCN(CC(=O)O)CC3)cc2)NC(=O)[C@H]([C@@H](C)CC)NC1=O [Lu-C-28] ({CH2CO}-[NMeQ][NMeQ]D[NMeQ][Phe(4-COOH)]II[AEF](DOTA)[NMe2Nal]G[Phe(4-(1-Me-pyrazol-4-yl))][NMeC]-NH2; thioether N-12) | 1.8 nM |

Now from value to compound:

| Kd | Compound |
| --- | --- |
| 0.5 nM | CC[C@H](C)[C@@H]1NC(=O)[C@H]([C@@H](C)OC)NC(=O)[C@H](Cc2ccc(C(=O)O)cc2)NC(=O)[C@H](CCC(N)=O)N(C)C(=O)[C@H](CC(=O)O)NC(=O)[C@H](CCOC)N(C)C(=O)[C@H](CCC(N)=O)N(C)C(=O)CSC[C@@H](C(N)=O)N(C)C(=O)[C@H](Cc2ccc(-c3ccccc3)nc2)NC(=O)CNC(=O)[C@H](Cc2ccc3ccccc3c2)N(C)C(=O)[C@H](Cc2ccc(OCCNC(=O)N3CCN(CC(=O)O)CC3)cc2)NC1=O [Conjugate 2-19] ({CH2CO}-[NMeQ][NMehSer](Me)D[NMeQ][Phe(4-COOH)]T(Me)I[AEF]([CO-Piperazinyl(4-CH2COOH)])[NMe2Nal]G[3Pal(6-Ph)][NMeC]-NH2; thioether N-12) |
| 0.8 nM | CC[C@H](C)[C@@H]1NC(=O)[C@H]([C@@H](C)OC)NC(=O)[C@H](Cc2ccc(C(=O)O)cc2)NC(=O)[C@H](CCC(N)=O)N(C)C(=O)[C@H](CC(=O)O)NC(=O)[C@H](CCOC)N(C)C(=O)[C@H](CCC(N)=O)N(C)C(=O)CSC[C@@H](C(N)=O)N(C)C(=O)[C@H](Cc2ccc(-c3ccccc3)nc2)NC(=O)CNC(=O)[C@H](Cc2ccc3ccccc3c2)N(C)C(=O)[C@H](Cc2ccc(OCC(=O)N3CCN(CC(=O)O)CC3)cc2)NC1=O [Conjugate 2-22] ({CH2CO}-[NMeQ][NMehSer](Me)D[NMeQ][Phe(4-COOH)]T(Me)IY(CH2CON(CH2CH2)2NCH2COOH)[NMe2Nal]G[3Pal(6-Ph)][NMeC]-NH2; thioether N-12) |
| 0.7 nM | CC[C@H](C)[C@@H]1NC(=O)[C@H]([C@@H](C)OC)NC(=O)[C@H](Cc2ccc(C(=O)O)cc2)NC(=O)[C@H](CCC(N)=O)N(C)C(=O)[C@H](CC(=O)O)NC(=O)[C@H](CCOC)N(C)C(=O)[C@H](CCC(N)=O)N(C)C(=O)CSC[C@@H](C(N)=O)N(C)C(=O)[C@H](Cc2ccc(-c3ccccc3)nc2)NC(=O)CNC(=O)[C@H](Cc2ccc3ccccc3c2)N(C)C(=O)[C@H](Cc2ccc(CNC(=O)N3CCN(CC(=O)O)CC3)cc2)NC1=O [Conjugate 2-20] ({CH2CO}-[NMeQ][NMehSer](Me)D[NMeQ][Phe(4-COOH)]T(Me)I[Phe(4-CH2NH2)]([CO-Piperazinyl(4-CH2COOH)])[NMe2Nal]G[3Pal(6-Ph)][NMeC]-NH2; thioether N-12) |
